The source of these data is PubChem BioAssay AID1996.

≈ marks a conversion by molar mass, not a printed value.

By kinetic solubility is commonly meant solubility judged after dilution from a stock solution rather than from solid.

The conditions of the data set: buffer; pH 7.4; 200.0 µM.
As to `CC1CC(c2ccccc2)=Nc2ccccc2N1` (stereo not drawn), the solubility (kinetic) stood at 26.2 µg/mL (≈ 111 µM).
Next, `CSCC(=O)Nc1nc(-c2ccc3c(c2)OCCO3)cs1`: 5.2 µg/mL (≈ 16.1 µM).
Under `Cc1cc(C)nc(Nc2nc(-c3ccccc3)cs2)n1` stands below 0.2 µg/mL; under `O=C(O)c1ccc2c(=O)n3c(nc2c1)/C(=C/c1cccc(O)c1)CC3`, above 50.1 µg/mL; under `O=C(CNC(=O)c1ccc(Cl)cc1)c1ccc(Br)cc1`, below 0.8 µg/mL.
`O=C(NCC(O)COc1ccc([N+](=O)[O-])cc1)c1ccccc1` (stereo not drawn): the kinetic solubility is 24.8 µg/mL (≈ 78.4 µM).
Next, `O=C(N/N=C/c1ccoc1)c1ccccc1F`: above 34.8 µg/mL.
In turn, `COc1ccc(/C=C/C(=O)O)cc1S(=O)(=O)N1CCCC1` registered a kinetic solubility above 46.7 µg/mL.
Under `O=C(COC(=O)/C=C/c1ccc(F)cc1)NCC1CCCO1` (stereo not drawn) stands above 46.1 µg/mL.
In turn, `O=c1[nH]c(=S)n(C2CC2)c(O)c1C=NCc1ccc(F)cc1` had a kinetic solubility of 0.9 µg/mL (≈ 2.82 µM).
Next, `O=C(NCc1ccc(F)cc1)c1cnc(Cl)c(Cl)c1`: 6.9 µg/mL (≈ 23.1 µM); `O=C(O)C1C2CCC(O2)C1C(=O)Nc1ccccc1Br` (stereo not drawn): above 51 µg/mL.
Next, `O=C(CC(NC(=O)c1ccccc1)c1ccccc1)NCc1ccccc1` (stereo not drawn): 4.1 µg/mL (≈ 11.4 µM); `Cc1c(Cl)cnc(NC(=O)COC(=O)C2CC2)c1Cl`: above 45.5 µg/mL; `CC(=O)Nc1cc[n+](CC(=O)c2cccc([N+](=O)[O-])c2)cc1.[Cl-]`: 40.3 µg/mL.
Turning to `CCOC(=O)C1=C(C)NC(C)=C(C(=O)OCC)C1C(=O)OCC(=O)N1CCOCC1`, the solubility (kinetic) is above 63.7 µg/mL.
Next, `Cc1ccc(C(=O)Nc2cc3[nH]c(=O)oc3cc2C)cc1`: 4.8 µg/mL (≈ 17 µM); `O=S(=O)(c1cccc2nsnc12)N1CCCCC1`: above 42.5 µg/mL; `Cc1cc(NC(=O)c2ccc([N+](=O)[O-])cc2)n(C)n1`: above 39 µg/mL.
`O=C(COC(=O)c1ccc(Br)o1)Nc1ccc2c(c1)OCCO2` had a kinetic solubility of 5.1 µg/mL (≈ 13.3 µM).
Next, `Cc1sc(NC(=O)c2c(F)cccc2F)nc1-c1ccccc1`: 0.6 µg/mL (≈ 1.82 µM).
As for `COc1cc(CC(=O)NCC2CCCCC2)cc(OC)c1OC`, the solubility (kinetic) was determined as 43.9 µg/mL (≈ 137 µM).
Next, `Cc1cccn2c(=O)c(C=O)c(N3CC(C)OC(C)C3)nc12` (stereo not drawn): above 45.2 µg/mL.
With `Cc1cccc(C)c1N1CCN(c2c(C)cccc2C)CC1`, the solubility (kinetic) is below 0.3 µg/mL.
As to `Cc1ccc(C)c(S(=O)(=O)N2CCC3(CC2)OCCO3)c1`, the solubility (kinetic) was above 46.7 µg/mL.
For the compound `O=C1NC2=C(C(=O)CCC2)C(c2cccc([N+](=O)[O-])c2)N1` (stereo not drawn), the solubility (kinetic) is above 43.1 µg/mL.
For the compound `CCCNC(=O)Nc1cccc(C(=O)OC)c1`, the kinetic solubility was above 35.4 µg/mL.
On to `CCn1cc(S(=O)(=O)Nc2ccc(Cl)cc2F)cn1`, for which the solubility (kinetic) was above 45.6 µg/mL.
Under `O=C1Cc2cc(S(=O)(=O)NCc3ccc(F)cc3)ccc2N1` stands 16.7 µg/mL (≈ 52.1 µM); under `CC1(C)NC(=O)N(CCCCOc2ccc(Cl)cc2C=O)C1=O`, 47.6 µg/mL (≈ 140 µM).
`Cc1cc(C)c2sc(N(CCN(C)C)C(=O)c3ccc4ccccc4c3)nc2c1.Cl` had a kinetic solubility of 6.7 µg/mL.
Consider `C=CCNC(=O)c1cnc(-c2ccccc2)nc1-c1ccccc1`, for which the kinetic solubility was found to be 0.7 µg/mL (≈ 2.22 µM).
`COc1cc2sc(C)nc2cc1C`: the kinetic solubility was 4.8 µg/mL (≈ 24.8 µM).
The compound `Cc1cc(NC(=O)COC(=O)c2ccco2)no1` showed a kinetic solubility above 37.5 µg/mL.
For `CCCCN(C)C(=O)C1CCN(Cc2cccnc2)CC1`, the solubility (kinetic) was above 43.4 µg/mL.
Under `Nc1ncnc(Nc2ccc(F)c(Cl)c2)n1` stands 8.4 µg/mL (≈ 35.1 µM); under `O=C(Nc1ccccc1)Nc1cccc2ccccc12`, 0.3 µg/mL (≈ 1.14 µM); under `CC1Sc2ccc(C(=O)NCc3ccccn3)cc2NC1=O` (stereo not drawn), 45.6 µg/mL (≈ 146 µM).
The compound `COc1ccc(N=CC2=C(O)CC(C)(C)CC2=O)cc1OC` came in with a kinetic solubility above 45.5 µg/mL.
`CCN(CC)C(=S)Oc1c(Cl)cccc1Cl` showed a kinetic solubility of 2.2 µg/mL (≈ 7.91 µM).
As for `Cc1ccc(-c2csc(NC(=O)CN3CCOCC3)n2)cc1C`, the solubility (kinetic) was found to be 39.2 µg/mL (≈ 118 µM). This solubility kinetic is about 18-fold higher than that of the compound before.
Under `O=C1CCC2=C(CCCC2=O)N1` stands 24.2 µg/mL (≈ 146 µM); under `Cc1[nH]c2ccccc2c1SCC(=O)N1CCCCC1`, 40.4 µg/mL (≈ 140 µM); under `Cl.NCCCCCc1nnc(SCC(N)=O)o1`, above 42.1 µg/mL.
Under `NCCNc1ccc([N+](=O)[O-])c2cccnc12` stands 28.7 µg/mL (≈ 124 µM); under `CC(C)(C)c1ccc(C2=NC(=O)C(CC(=O)O)S2)cc1` (stereo not drawn), 37.4 µg/mL (≈ 128 µM).
Under `CNC(=O)CN1C(=O)NC(c2ccccc2)(c2ccccc2)C1=O` stands above 48.5 µg/mL.
`O=C(c1cccc(F)c1F)N1CCCc2ccccc21`: the solubility (kinetic) is 31.1 µg/mL (≈ 114 µM).
Next, `CCn1c(SCC(=O)NC2CCCCC2)nnc1-c1ccccc1F`: above 54.4 µg/mL.
Next, `O=C(O)C1CC(=O)N(c2ccc(OCc3ccc(Br)cc3)cc2)C1` (stereo not drawn): above 58.5 µg/mL; `CSCCC1NC(=O)N(CC(=O)Nc2cccc(S(=O)(=O)N3CCCCCC3)c2)C1=O` (stereo not drawn): 52.3 µg/mL (≈ 112 µM); `CCOc1ccc(CNC(=O)Nc2ccccc2)cc1`: 3.8 µg/mL (≈ 14.1 µM).
Under `CCC1CCCCN1S(=O)(=O)c1ccc([N+](=O)[O-])cc1` (stereo not drawn) stands 34.3 µg/mL (≈ 115 µM); under `Cc1ccc(C(=O)O/N=C(\N)Cc2cccc3ccccc23)cc1`, 0.5 µg/mL (≈ 1.57 µM); under `CC1CC(=O)Nc2ccccc2N1S(=O)(=O)c1ccc(C#N)cc1` (stereo not drawn), 2.7 µg/mL (≈ 7.91 µM).
`O=C1C=C(N2CCCCCC2)C(=O)N1c1ccc(Cl)cc1` yielded a solubility (kinetic) of 8.9 µg/mL (≈ 29.2 µM). This solubility kinetic is about 3.3-fold higher than that of the compound before.
`CC(C)Oc1ccc(CC2(CCc3ccncc3)C(=O)NC(=O)NC2=O)cc1` returned a solubility (kinetic) of 7.7 µg/mL (≈ 20.2 µM).
On to `COc1ccnc2c1c(=O)n(Cc1cccc(F)c1)c(=O)n2C`, for which the solubility (kinetic) stood at 37.9 µg/mL (≈ 120 µM). Compared with the last compound, the solubility kinetic is about 4.9-fold higher.
`CN(C)CCCN=C(NO)c1ccc(Cl)cc1Cl` had a solubility (kinetic) of 40.5 µg/mL (≈ 140 µM). The solubility kinetic values of the last two compounds are within 1.5-fold of each other.
Next, `O=C(Nc1ccc(NC(=O)c2cccs2)cc1Cl)c1ccco1`: 1.1 µg/mL (≈ 3.17 µM); `COc1ccc(OCC(=O)Nc2ccc3nc(C)sc3c2)cc1`: 15.8 µg/mL (≈ 48.1 µM); `Cc1cc2cc(CNC(=O)C(C)Oc3ccccc3)ccc2n1C` (stereo not drawn): 11.4 µg/mL (≈ 35.4 µM).
`Cc1cccc([N+](=O)[O-])c1NC(=O)COC(=O)C1CCCO1` (stereo not drawn) gave a solubility (kinetic) above 46.2 µg/mL.
Next, `O=C(NCC(c1ccco1)N1CCc2ccccc21)c1cccc(F)c1` (stereo not drawn): 16.3 µg/mL (≈ 46.5 µM); `O=C(COC(=O)C1CC1)Nc1ccc2c(c1)OCO2`: above 39.5 µg/mL; `CN1c2ccccc2C(=O)/C(=C\Nc2ccc(F)cc2F)S1(=O)=O`: 1 µg/mL (≈ 2.85 µM).
`CCC(C)c1ccc(NC(=S)N2CCN(c3ccccn3)CC2)cc1` (stereo not drawn) came in with a kinetic solubility of 2.6 µg/mL (≈ 7.33 µM).
Next, `COC(=O)c1cc(Sc2cccc(Cl)c2Cl)ccn1`: 26.3 µg/mL (≈ 83.7 µM); `COc1ccc(Oc2cccc(Cl)c2CNC(=O)CSCC(=O)O)cc1`: above 59.4 µg/mL; `O=C(NC(=S)N1CCCC1)c1ccccc1Cl`: 35.7 µg/mL (≈ 133 µM).
Turning to `CCOC(=O)c1ccc(NC(=O)N2CCc3ccccc3C2)cc1`, the solubility (kinetic) worked out at 19.2 µg/mL (≈ 59.2 µM).
As to `CCOc1ccc(S(=O)(=O)NC(C)C(=O)NCc2ccccn2)cc1` (stereo not drawn), the kinetic solubility was above 54.5 µg/mL.
Under `CC(=O)c1cc(C#N)c(SCC(=O)Nc2nccs2)nc1C` stands 0.7 µg/mL (≈ 2.11 µM).
Under `COc1ccc(NC(=O)c2cc3cc(C)ccc3n2C)c(OC)c1` stands 2.7 µg/mL (≈ 8.32 µM).
Under `O=C(CCSCc1ccccc1Cl)NCc1ccco1` stands above 46.5 µg/mL; under `Cc1[nH]c2ccccc2c1SCC(=O)NC1CCCCC1`, above 45.4 µg/mL; under `Cc1[nH]c(=O)nc(SCc2ccc(Cl)c(Cl)c2)c1C#N`, 3.4 µg/mL (≈ 10.4 µM).
Take `Cc1nc2ccc(S(=O)(=O)N3CCCCC3)cc2s1`: the solubility (kinetic) is 21.4 µg/mL (≈ 72.2 µM).
Compound `Cc1ccc(CNC(=O)c2cc(Cl)cc(Cl)c2)n1C` returned a solubility (kinetic) of 11.1 µg/mL (≈ 37.4 µM).
Next, `CN(C)/C=C/C(=O)c1ccc2noc(-c3cccc(F)c3)c2c1`: 7.3 µg/mL (≈ 23.5 µM); `CC(NC(=O)CNC(=O)c1ccco1)c1ccccc1` (stereo not drawn): above 40.8 µg/mL; `CC(=O)Nc1ccc(OC(=O)N2CCCC2)cc1`: above 37.2 µg/mL.
Next, `CCOC(=O)C1=C(C)Nc2nc3ccccc3n2C1c1ccc(O)cc1` (stereo not drawn): below 0.2 µg/mL.
In turn, `CC1(C)CC(=O)C=C(NCc2ccc(C(=O)O)cc2)C1` gave a solubility (kinetic) of 37.6 µg/mL (≈ 138 µM).
Next, `Oc1cccc(Nc2nc(-c3ccccc3)nc3ccccc23)c1`: 2.2 µg/mL (≈ 7.02 µM); `CNc1nc(N)c([N+](=O)[O-])c(NC2CCCCC2)n1`: 1.7 µg/mL (≈ 6.38 µM); `CNC(=O)COC(=O)COc1ccc2c(C)cc(=O)oc2c1`: above 45.8 µg/mL.
Under `COc1ccc(S(=O)(=O)NCc2cccnc2)cc1C` stands above 43.9 µg/mL; under `COC(=O)c1cc(C(=O)NC(C)(C)CC(C)(C)C)cc([N+](=O)[O-])c1`, 17.8 µg/mL (≈ 52.9 µM); under `Cc1ccc(S(=O)(=O)N2CCC[C@H]2C(=O)OCc2cc(=O)oc3cc(C)ccc23)cc1`, 7.3 µg/mL (≈ 16.5 µM).
As for `Cc1ccccc1CC1CCN(CCCNC(=O)Nc2ccccc2)CC1`, the kinetic solubility came to 39.9 µg/mL (≈ 109 µM).
Take `Cc1cccc2[nH]c3c(N4CC=C(c5ccc(F)cc5)CC4)ncnc3c12`: the solubility (kinetic) turned out to be 1 µg/mL (≈ 2.79 µM).
Next, `C[C@H](NS(=O)(=O)c1ccccc1F)C(=O)OCC(=O)Nc1ccc2c(c1)OCCO2`: above 65.8 µg/mL; `O=C(NCCc1cccs1)c1cccs1`: above 35.6 µg/mL.
Compound `Cc1ccccc1N1CC(C(=O)N2CC(C)OC(C)C2)CC1=O` (stereo not drawn) yielded a solubility (kinetic) of 47.1 µg/mL (≈ 149 µM).
As to `CC1(C)[C@H]2CC[C@]1(C)[C@@H](OC(=O)C[N+]1(C)CCOCC1)C2.[I-]`, the solubility (kinetic) stood at 60.1 µg/mL.
Consider `O=C(Nc1nnc(Cc2ccc(Cl)cc2)s1)C1CCCO1` (stereo not drawn), for which the solubility (kinetic) is above 48.6 µg/mL.
`O=C(NCCc1ccc(Cl)cc1)c1ccc2c(c1)OCCO2` showed a solubility (kinetic) of 0.8 µg/mL (≈ 2.52 µM).
For the compound `O=C(O)c1ccc(N2C(=O)CSC2=S)cc1`, the solubility (kinetic) was above 38 µg/mL.
Under `CC(C)C(=O)Nc1ccc2c(c1)nc(CCN1CCCCC1)n2C` stands above 49.3 µg/mL; under `CCC(CO)(C(=O)OC1CC2CCC(C1)N2C)c1ccccc1.Cl` (stereo not drawn), above 53.1 µg/mL.
Under `CC(C)Cn1c(N)c(C(=O)COC(=O)c2cc(S(=O)(=O)N3CCOCC3)ccc2Br)c(=O)n(C)c1=O` stands 7.9 µg/mL (≈ 13.4 µM); under `COc1ccc(C(=O)NC2CCCCCCC2)cc1OC`, 15.2 µg/mL (≈ 52.2 µM).
